Reference: paper PMC11873616 (Acta Pharmaceutica Sinica. B, 2024)

Tests used:
[1] = system: IEC6 cells; assay: Fibrosis/EMT-related gene and protein expression in TGFβ1-induced EMT cell model; type: cell-based, rat; conditions: for expression of fibrotic genes and proteins (Vimentin, αSMA): TGFβ1, oxamate 20 mmol/L, DCA 20 mmol/L or rotenone 10 nmol/L
[2] = system: IEC6 cells; assay: Glycolysis and metabolic gene expression in TGFβ1-induced cells; type: cell-based, rat; conditions: TGFβ1 + 2DG vs TGFβ1, n = 7–8
[3] = system: IEC6 cells; assay: Lactate determination in cell culture supernatant; type: cell-based, rat; conditions: TGFβ1 10 ng/mL, 2DG 1 mmol/L, 7 days, n = 6
[4] = system: IEC6 cells; assay: Histone lactylation; type: cell-based, rat; conditions: exogenous lactate, Western blot, n = 3
[5] = system: Smad2 or Smad3; assay: Smad2/Smad3 phosphorylation after lactate treatment; type: cell-based

O=C(O)C(Cl)Cl [DCA, sodium dichloroacetate]
expression of fibrotic genes and proteins (Vimentin, αSMA) [1]: more pronounced reduction

O=CC[C@@H](O)[C@H](O)[C@H](O)CO [Peptide 2DG, 2-Deoxy-D-glucose]
glycolysis (GSEA-KEGG of gene expression) [2]: effectively inhibited glycolysis | lactate levels (TGFβ1-mediated extracellular lactate production) [3]: substantial reduction | expression of fibrotic genes and proteins ([1]; TGFβ1 10 ng/mL, 2DG 1 mmol/L, 7 days): substantial reduction

CC(O)C(=O)O (stereo not drawn) [lactate]
site-specific histone lactylation (H2BK16la, H3K9la, H3K18la, H4K5la and H4K12la) [4]: induced overwhelming lactylation modifications | phosphorylation of Smad2 or Smad3 [5]: did not alter | expression of fibrotic genes after lactate stimulation (qRT-PCR) ([1]; lactate 10 mmol/L for 72 h, no TGFβ1, n = 6): significantly elevated

NC(=O)C(=O)O [oxamate]
expression of fibrotic genes and proteins (Vimentin, αSMA) [1]: more pronounced reduction

C=C(C)[C@H]1Cc2c(ccc3c2O[C@@H]2COc4cc(OC)c(OC)cc4[C@@H]2C3=O)O1 [rotenone]
expression of fibrotic genes and proteins (Vimentin, αSMA) [1]: increased the expression of fibrotic genes
